Test results: US20130210054A1, “Amino Acid Copolymer Assay” (Momenta Pharmaceuticals, Inc., priority 2012, published 2013)

Experiments:
Type in all cases: cell-based, Balb/c mice
CD4+ T cells = assay: Cytokine levels in culture media of CD4+ T cells from GA-immunized mice after restimulation with antigen and APCs (multiplex); conditions: for levels of Th2 cytokines induced: after a second round of stimulation, 20 μg antigen
Description: Balb/c mice (Jackson Labs) were immunized with 250 μg/mL of GA (reference lot drug (RLD) or ovalbumin (OVA), each in saline, emulsified in complete Freund's adjuvant (CFA) on day 1. On day 11, the draining lymph nodes were harvested, single cell suspensions were made, and CD4+ T cells were enriched by negative selection immunomagnetic bead purification.
For ex vivo challenge, CD4+ T cells (1×10^6/ml) were re-stimulated with 20 μg/mL of the same antigen used to immunize the mice (RLD, GA, or OVA) in the presence of freshly isolated or frozen naïve mitomycin C-treated splenic APCs (1×10^7/ml) for 3-4 days, at which time, the culture media was replaced with fresh culture media supplemented with 20 ng/ml of IL-2. Cells were split and reseeded at 800,000 cells/mL in media containing 4 parts fresh media (RPMI/5% FBS/20 ng/mL IL-2) and 1 part recycled media from the previous culture. This cycle of changing the media and splitting the cells was repeated for 6 cycles. Cells were frozen and stored as a cell bank.
After cell propagation, the CD4+ T cells were restimulated once again with freshly isolated naïve mitomycin C-treated splenic APCs (1×10^7/ml) for 4 days and 20 μg of the respective antigen. Culture supernatants were collected 72 hours after the start of each restimulation for analysis.
Th1 (IL-2 and IL-12p40), Th2 (IL-4, IL-5 IL-6, IL-10, and IL-13) and Th17 (IL-17) cytokine levels (ng/ml) were measured using multiplex technology (Endogen Searchlight, Rockford, Ill.). A one-way ANOVA followed by Newman-Keuls multiple comparison test (significance level, p<0.05) for each individual measured cytokine was used for statistical analysis.

[1] = test system: GA-specific polarized Th2 cells; assay: GA-Th2 assay: IL-4 in culture media by ELISA; conditions: 0 to 50 μg/ml antigen, 24 hours, sandwich ELISA
Description: Populations of Th2 cells and APC cells were reanimated in culture media (RPMI/5% FBS/20 ng/mL IL-2), added dropwise. Cells were pelleted at 400-800G before being resuspended in fresh culture media for use in the assay. […] The final volume for the assay was 0.2 mL. The set up for the Th2 assay is illustrated in FIG. 7.
Conditioned culture media was collected 24 hours post stimulation for analysis by multiplex assay and ELISA.
The response curve was fit to the four parameter logistic fit equation using nonlinear regression and the EC50 (μg/ml) was calculated. One-way ANOVA followed by Tukey's multiple comparison test (significance level, p<0.05) was used for statistical testing of the dataset for each plate.
IL-4 levels were determined by sandwich ELISA.

[2] = test system: GA-specific polarized Th2 cells; assay: Th2 assay: cytokine secretion by GA-specific polarized Th2 cells with APCs and antigen, 9-plex MSD multiplex
Description: Populations of Th2 cells and APC cells were reanimated in culture media (RPMI/5% FBS/20 ng/mL IL-2), added dropwise. Cells were pelleted at 400-800G before being resuspended in fresh culture media for use in the assay. For the assay, 150,000 APC cells were combined with a concentration of GA using serial dilution of the GA. The resulting concentration curve provided a range from 0-50 μg/mL GA. APC cells were incubated with the GA for about 10 minutes before the Th2 cells were added. The final volume for the assay was 0.2 mL. The set up for the Th2 assay is illustrated in FIG. 7.
More specifically, GA-specific polarized Th2 cells prepared according to Example 1 were cultured in vitro with varying concentrations of GA (reference standard commercial preparation, Copaxone® or glatiramoid (Sigma-Aldrich (COP-1)) in the presence of syngeneic, mitomycin-C-treated, naïve splenic APCs. Cells were cultured in 96-well plates in a final volume of 200 μl per well, with 50 μl of […] splenic APCs (150×10^3/50 μl) freshly isolated from naïve Balb/c mice, 50 μl of GA-specific polarized Th2 cells (50×10^3/50 μl) and 100 μl of culture media (complete RPMI-10 supplemented with 10% FBS) containing RLD or COP-1 at increasing concentrations of GA from 0 to 50 μg/ml. Conditioned culture media was collected 24 hours post stimulation for analysis by multiplex assay and ELISA. Th1 ([…], IL-2, IL-12p70, TNF-α, KC and IFN-γ) and Th2 (IL-4, IL-5, and IL-10) cytokine levels (pg/ml) were measured using the 9-plex mouse Th1/Th2 cytokine kit from Meso Scale Discovery (MSD) (Gaithersburg, Md.).

L-glutamic acid polymer with L-alanine, L-lysine and L-tyrosine, acetate (salt) [GA]
levels of Th2 cytokines induced (CD4+ T cells; supernatant 72 hours): high levels | levels of Th2 cytokines (IL-5, IL-6, IL-10, IL-13) induced (CD4+ T cells; after the first round of stimulation, 20 μg/mL antigen, supernatant 72 hours): low but detectable levels | Th17 cytokine IL-17 and Th1 cytokine IL-12p40 (CD4+ T cells; with the second round of stimulation): selectively down-regulated

MBP (87-89): myelin basic protein peptide, Peptides International Catalog No. PMB-3973-PI (NRPHLIRLFSRDA; UniProt P04370 87-99, looked up, fragment)
IL-4 in the culture media (cross-reactivity) [1]: no IL-4 was detected

MOG (35-55): encephalitogenic neuroantigen peptide, Peptides International (MEVGWYRSPFSRVVHLYRNGK; UniProt Q61885 63-83, looked up, fragment)
IL-4 in the culture media (cross-reactivity) [1]: no IL-4 was detected

PLP (139-151): encephalitogenic neuroantigen peptide, Peptides International (CHCLGKWLGHPDK; UniProt P60202 139-151, looked up, fragment)
IL-4 in the culture media (cross-reactivity) [1]: no IL-4 was detected

Poly(Ala, Glu, Lys, Tyr) 6:2:5:1 hydrobromide [COP-1]
Th2 cytokines (IL-4, IL-5, IL-10) secreted ([2]; 0 to 50 μg/ml antigen, 24 hours): dose-dependent increase | levels of IL-2 and TNF-α ([2]; 0 to 50 μg/ml, 24 hours): quantifiable and exhibited dose dependency | response versus RLD in secretion of the Th2 cytokines ([2]; 0 to 50 μg/ml, 24 hours): readily distinguishable from RLD | levels of secreted Th1 cytokines (IL-1β, KC, IFN-γ) ([2]; 0 to 50 μg/ml, 24 hours, not dose dependent): very low (below limits of quantitation) | IL-12 secretion ([2]; 0 to 50 μg/ml, 24 hours, quantitated): not dose dependent | doses at which discriminated from RLD in levels of IL-2 and TNF-α secreted ([2]; 24 hours): > 30 µg/mL | levels of Th2 cytokines (IL-4, IL-5, IL-10, IL-13), IL-2, IL-6 and TNF-α compared to restimulation with GA ([2]; restimulated in the presence of APCs): significantly decreased levels

B1: murine MBP: murine myelin basic protein, EMD Biosciences Catalog No. 124027 (protein, UniProt P04370 1-250, looked up)
Myelin basic protein: MGNHSGKRELSAEKASKDGEIHRGEAGKKRSVGKLSQTASEDSDVFGEADAIQNNGTSAEDTAVTDSKHTADPKNNWQGAHPADPGNRPHLIRLFSRDAPGREDNTFKDRPSESDELQTIQEDPTAASGGLDVMASQKRPSQRSKYLATASTMDHARHGFLPRHRDTGILDSIGRFFSGDRGAPKRGSGKDSHTRTTHYGSLPQKSQHGRTQDENPVVHFFKNIVTPRTPPPSQGKGGRDSRSGSPMARR
IL-4 in the culture media (cross-reactivity) [1]: no IL-4 was detected

B2: ovalbumin: ovalbumin control antigen (protein, UniProt P01012 2-386, looked up)
Ovalbumin: GSIGAASMEFCFDVFKELKVHHANENIFYCPIAIMSALAMVYLGAKDSTRTQINKVVRFDKLPGFGDSIEAQCGTSVNVHSSLRDILNQITKPNDVYSFSLASRLYAEERYPILPEYLQCVKELYRGGLEPINFQTAADQARELINSWVESQTNGIIRNVLQPSSVDSQTAMVLVNAIVFKGLWEKAFKDEDTQAMPFRVTEQESKPVQMMYQIGLFRVASMASEKMKILELPFASGTMSMLVLLPDEVSGLEQLESIINFEKLTEWTSSNVMEERKIKVYLPRMKMEEKYNLTSVLMAMGITDVFSSSANLSGISSAESLKISQAVHAAHAEINEAGREVVGSAEAGVDAASVSEEFRADHPFLFCIKHIATNAVLFFGRCVSP
levels of Th2 cytokines induced (CD4+ T cells; supernatant 72 hours): did not show a corresponding increase
